Like-named read-outs stand apart in the source and are kept apart here.
What was measured:
[1] = test system: hiPSC-derived neurons co-cultured with human primary astrocytes in 3D; assay: Ca2+ transient oscillation assay (FDSS), 3D spheroids; assay type: cell-based; conditions: for Area under the curve - 3D Mean / Peak Number—3D Mean / Peak amplitude - 3D Mean / Peak width - 3D Mean / Peak-to-peak interval - 3D Mean: 60 min
In short: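 Fura-2 fluorescence was read twice for 20 min each: a baseline 10 min after 0.04% DMSO, and again 60 min after compound addition at nominal final concentration. The 3D co-cultures (1:1 hiPSC neurons from a donor and human astrocytes, 8000 each) matured 5 weeks in BrainPhys medium after a 1-week differentiation.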

[2] = ref PharmaPendium, cited from earlier work
[3] = test system: hiPSC-derived neurons co-cultured with human primary astrocytes in 2D; assay: Ca2+ transient oscillation assay (FDSS), 2D co-culture; assay type: cell-based; conditions: for activation at 0.11 µM / activation at 0.33 µM / activation at 1 µM / activation at 3 µM / activation at 0.37 µM / activation at 1.11 µM / activation at 3.33 µM / activation at 10 µM: Homo sapiens, 1 h, 60 min
In short: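 Cultures were 10,000 CW50065 hiPSC excitatory neurons plus 2500 primary human astrocytes per well. Recordings used Cal-520 dye in HBSS/HEPES/glucose at 37 °C, with a 470/540 nm read at 2 Hz. Oscillations were stabilized with 0.04% DMSO, read for 20 min, then read again 60 min after compound addition (final DMSO 0.1%).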

[4] = Table 1, peak plasma concentration in men, free therapeutic Cmax
[5] = read-out: Area under the curve - 2D Mean
[6] = read-out: Peak amplitude - 2D Mean
[7] = read-out: Peak-to-peak interval - 2D Mean

Compound: CC1(C)S[C@@H]2[C@H](NC(=O)[C@H](N)c3ccc(O)cc3)C(=O)N2[C@H]1C(=O)O [Amoxicillin]
- Area under the curve - 3D Mean ([1]; 0.11 µM): 147.7 % change from baseline
- Peak Number—3D Mean ([1]; 0.11 µM): −8.0 % change from baseline
- Peak amplitude - 3D Mean ([1]; 0.11 µM): 136.9 % change from baseline
- Peak width - 3D Mean ([1]; 0.11 µM): 4.7 % change from baseline
- Peak-to-peak interval - 3D Mean ([1]; 0.11 µM): 12.1 % change from baseline
- Area under the curve - 3D Mean ([1]; 0.33 µM): 145.7 % change from baseline
- Peak Number—3D Mean ([1]; 0.33 µM): 1.4 % change from baseline
- Peak amplitude - 3D Mean ([1]; 0.33 µM): 132.0 % change from baseline
- Peak width - 3D Mean ([1]; 0.33 µM): 5.5 % change from baseline
- Peak-to-peak interval - 3D Mean ([1]; 0.33 µM): 9.0 % change from baseline
- Area under the curve - 3D Mean ([1]; 1 µM): 122.0 % change from baseline
- Peak Number—3D Mean ([1]; 1 µM): 9.3 % change from baseline
- Peak amplitude - 3D Mean ([1]; 1 µM): 130.1 % change from baseline
- Peak width - 3D Mean ([1]; 1 µM): −4.5 % change from baseline
- Peak-to-peak interval - 3D Mean ([1]; 1 µM): −5.5 % change from baseline
- Area under the curve - 3D Mean ([1]; 3 µM): 125.7 % change from baseline
- Peak Number—3D Mean ([1]; 3 µM): 18.3 % change from baseline
- Peak amplitude - 3D Mean ([1]; 3 µM): 123.5 % change from baseline
- Peak width - 3D Mean ([1]; 3 µM): 1.2 % change from baseline
- Peak-to-peak interval - 3D Mean ([1]; 3 µM): −1.2 % change from baseline
- Free Cmax [2, 4]: 3 to 32000 nM
- activation at 0.11 µM [3, 5]: 38.3%
- activation at 0.11 µM ([3]; read-out: Peak Number—2D Mean): -10.5%
- activation at 0.11 µM [3, 6]: 19.3%
- activation at 0.11 µM ([3]; read-out: Peak width - 2D Mean): 22.3%
- activation at 0.11 µM [3, 7]: 27.3%
- activation at 0.33 µM [3, 5]: 23.7%
- activation at 0.33 µM ([3]; read-out: Peak Number—2D Mean): 8.3%
- activation at 0.33 µM [3, 6]: 5%
- activation at 0.33 µM ([3]; read-out: Peak width - 2D Mean): 25.7%
- activation at 0.33 µM [3, 7]: 9.3%
- activation at 1 µM [3, 5]: 45.8%
- activation at 1 µM ([3]; read-out: Peak Number—2D Mean): 27.2%
- activation at 1 µM [3, 6]: 8.3%
- activation at 1 µM ([3]; read-out: Peak width - 2D Mean): 48%
- activation at 1 µM [3, 7]: -16%
- activation at 3 µM [3, 5]: 43%
- activation at 3 µM ([3]; read-out: Peak Number—2D Mean): 16.2%
- activation at 3 µM [3, 6]: 7.5%
- activation at 3 µM ([3]; read-out: Peak width - 2D Mean): 47.7%
- activation at 3 µM [3, 7]: -7.8%

Compound: CNCCCC12CCC(c3ccccc31)c1ccccc12 [Maprotiline]
- Area under the curve - 3D Mean ([1]; 0.37 µM): 139.7 % change from baseline
- Peak Number—3D Mean ([1]; 0.37 µM): −16.5 % change from baseline
- Peak amplitude - 3D Mean ([1]; 0.37 µM): 116.3 % change from baseline
- Peak width - 3D Mean ([1]; 0.37 µM): 6.2 % change from baseline
- Peak-to-peak interval - 3D Mean ([1]; 0.37 µM): 6.2 % change from baseline
- Area under the curve - 3D Mean ([1]; 1.11 µM): 133.4 % change from baseline
- Peak Number—3D Mean ([1]; 1.11 µM): −8.2 % change from baseline
- Peak amplitude - 3D Mean ([1]; 1.11 µM): 131.3 % change from baseline
- Peak width - 3D Mean ([1]; 1.11 µM): −1.0 % change from baseline
- Peak-to-peak interval - 3D Mean ([1]; 1.11 µM): 8.4 % change from baseline
- Area under the curve - 3D Mean ([1]; 3.33 µM): 123.1 % change from baseline
- Peak Number—3D Mean ([1]; 3.33 µM): −7.9 % change from baseline
- Peak amplitude - 3D Mean ([1]; 3.33 µM): 130.1 % change from baseline
- Peak width - 3D Mean ([1]; 3.33 µM): −3.2 % change from baseline
- Peak-to-peak interval - 3D Mean ([1]; 3.33 µM): 10.6 % change from baseline
- Area under the curve - 3D Mean ([1]; 10 µM): 11.9 % change from baseline
- Peak Number—3D Mean ([1]; 10 µM): 1.9 % change from baseline
- Peak amplitude - 3D Mean ([1]; 10 µM): 72.2 % change from baseline
- Peak width - 3D Mean ([1]; 10 µM): −40.8 % change from baseline
- Peak-to-peak interval - 3D Mean ([1]; 10 µM): −4.1 % change from baseline
- effect on peak number of oscillations, in words ([1]; 3D-cultured): did not significantly change the peak number
- Free Cmax [2, 4]: 60 nM
- Free Cmax ([2]; Table 2, highest plasma concentration in humans after the therapeutic dose): 60 nM
- effect on peak number / Ca2+ neuronal oscillations, in words ([3]; 2D format): significantly reduced peak number
- activation at 0.37 µM [3, 5]: 12.2%
- activation at 0.37 µM ([3]; read-out: Peak Number—2D Mean): -0.7%
- activation at 0.37 µM [3, 6]: 8.3%
- activation at 0.37 µM ([3]; read-out: Peak width - 2D Mean): 4.5%
- activation at 0.37 µM [3, 7]: 1.8%
- activation at 1.11 µM [3, 5]: -55.2%
- activation at 1.11 µM ([3]; read-out: Peak Number—2D Mean): 0.5%
- activation at 1.11 µM [3, 6]: -19.8%
- activation at 1.11 µM ([3]; read-out: Peak width - 2D Mean): -57.2%
- activation at 1.11 µM [3, 7]: 11.7%
- activation at 3.33 µM [3, 5]: -100%
- activation at 3.33 µM ([3]; read-out: Peak Number—2D Mean): -100%
- activation at 3.33 µM [3, 6]: -100%
- activation at 3.33 µM ([3]; read-out: Peak width - 2D Mean): -100%
- activation at 3.33 µM [3, 7]: -100%
- activation at 10 µM [3, 5]: -100%
- activation at 10 µM ([3]; read-out: Peak Number—2D Mean): -100%
- activation at 10 µM [3, 6]: -100%
- activation at 10 µM ([3]; read-out: Peak width - 2D Mean): -100%
- activation at 10 µM [3, 7]: -100%
